Patent US20230416750A1, “CATALYTIC SEQUENCE BASED METHODS OF TREATING OR PREVENTING BACTERIAL INFECTIONS” (priority 2020, published 2023)
{3CholTEG} = cholesteryl-TEG conjugate

Tests used:
[1] = system: Klebsiella pneumoniae; experiment: Lung ex-vivo infection model (mouse lung punches, CFU); type: cell-based; details: sub-toxic meropenem alone or with DNAzyme/scramble; 24 hours
Description: Lungs were harvested from 5-10 mice (C57BL/6, 6-8 weeks old) and placed in petri dishes containing DMEM 5% FCS. The tissue was divided into circular pieces 3 mm in diameter with a biopsy punch and transferred to poly-propanol tubes with 3 ml DMEM. DMEM was applied with meropenem and DNAzymes, as indicated. To each respective tube 10 μl of mid-logarithmic Klebsiella pneumoniae culture was added—with three technical repeats for each condition. The plates were incubated at 37° C. for approximately 1 days (24 hours), washed twice with PBS.
For CFU of bacteria infecting ex vivo tissue culture: individual punches or their growth media were collected, Punches were resuspended in 1 ml PBS (Biological Industries), and free-living bacteria were pelleted and resuspended in PBS at the same volume. Samples were thoroughly vortexed (5 min). The samples were then mildly manually crushed using 1.5 ml pestle. In all cases, to determine the number of viable cells, samples were serially diluted in PBS, plated on LB plates, and colonies were counted after incubation at 37° C. overnight.

[2] = system: Klebsiella pneumoniae strain ATCC BAA-1705; experiment: Galleria mellonella virulence assay (larvae viability); type: in vivo; details: infected G. mellonella larvae
Description: Larvae virulence experiments were performed in the facilities of Pharmaseed LTD (Ness Ziona, Israel). G. larvae were obtained from BioSystems Technologies (Exeter, UK) and stored in the shipment boxes at 15° C. for two weeks or at room temperature for immediate use with no requirement of food. Larvae were randomly selected from a large batch for an approximate weight of 250±25 mg. Larvae were separated from sawdust and selected for plumped, lighter colored worms. Darker colored, dehydrated worms, were discarded. Each treatment group (20 larvae per group) contained 10 larvae placed in a 10 cm empty Petri dish (2 dishes per treatment group), on a filter paper.
Bacterial inoculums were prepared from cultures grown overnight at 37° C. in TSB medium (HyLabs, Israel) and washed with sterile 1×PBS. Bacterial suspension concentration was determined by McFarland (Densicheck plus, Biomerieux) and diluted in sterile PBS to receive 10^9 CFU/mL. Serial dilutions of the bacterial suspensions were made and spots were plated on blood agar plates. The plates were incubated at 37° C. and on the next day CFU was counted in order to determine final injected bacterial concentrations.
Each larva was initially injected with 5×10^5 cells into the proleg. A second injection to the proleg was done with meropenem (10 μg/g), meropenem+DNAzyme (8.52 μg/g) or sterile PBS. […]

[3] = system: Klebsiella pneumoniae ATCC BAA-1705; experiment: Growth assays / MIC / viability (OD600, CFU) with meropenem; type: cell-based
Description: Cultures were incubated at 37° C. with continuous shaking and the optical density OD600 was recorded every 30 minutes using Ultrospec 10 (biochrom). Viability was tested by serial dilutions (1:100) of the bacterial suspensions and spots were plated on LB plates. The plates were incubated at 37° C. and on the next day CFU was counted to determine culture viability.

[4] = system: Klebsiella pneumoniae (ATCC BAA-1705); experiment: KP infected thigh muscle model in neutropenic mice; type: in vivo; details: SC TID, 240 mg/kg meropenem alone or with KPC-337 16, 24 or 32 mg/kg
Description: Neutropenia induction: The experiments were performed on female ICR mice age 9-10 weeks. At day (−4) neutropenia induction was performed by cyclophosphamide intraperitoneal (IP) injection at 150 mg/kg and a volume of 10 mL/kg. At day (−1) neutropenia maintenance was performed by cyclophosphamide IP injection at 100 mg/kg and a volume of 10 mL/kg.
Bacterial suspension preparation: At day (−4) KP (ATCC® BAA-1705™) bacteria was streaked out from −80° C. glycerol stock onto LB medium and incubated at 37° C. for 20 hours and then stored at 2-8° C. At day (−1) single colonies of the KP (ATCC® BAA-1705™ bacteria) were picked by using an inoculation loop (Greiner, 731175) and suspended in 20 mL Tryptic Soy broth (TSB) (Hylabs, BIO-MO11) in Erlenmeyer and incubated at 37° C. overnight (=starter) with shaking at 180 rpm. In the morning of dosing day, bacterial starter was diluted in fresh TSB (total of 20 mL) and incubated for about 1-3 hours at 37° C. […] Bacterial suspension concentration was determined by McFarland (Densicheck plus, Biomerieux) and diluted in sterile PBS to a concentration of 2.2×10^7 CFU/mL. […]
Bacterial burden determination: Homogenate samples dilutions were plated on LB agar plates at various dilutions to determine the colony forming units (CFUs). Plates were incubated overnight (at 37° C.), and bacterial burden was calculated and expressed as CFUs/gram of tissue.

[5] = system: HT-29 cells; type: cell-based; details: HT-29 human colorectal adenocarcinoma cells, 72 hours; read-out: IC50 of toxicity
Description: HT-29 cells (ATCC) were seeded in 24-well plates at 200,000 cells per well. DNAzyme were added to the medium at different concentrations. After 72 hours, PrestoBlue reagent (A13262, Life Technologies Ltd.) was added as a cell viability indicator.

[6] = system: β-lactamase; details: DNAzyme 1.25 M (so in the source) with 128 μg/ml meropenem, 1 h; vs untreated control
Description: Bacterial strains were streaked from frozen LB+glycerol stocks onto LB agar plates and incubate for 24 hours at 37° C. Single colonies were grown overnight at 37° C. in 3 ml of LB. Cultures were diluted 1:1000 in 2 ml LB supplemented with 128 μg/ml meropenem and DNAzyme were added to a final concentration of 1.25 M. Cultures were incubated at 37° C. with continuous shaking for 1 h. Measurement of the β-lactamase activity assay was done using colorimetric kit (abcam), according to the manufacture's protocol.

[7] = system: bla-KPC RNA transcripts; experiment: Bla-KPC quantification from bacterial cells (qPCR); type: cell-based; details: DNAzyme 1.25 μM with sub-toxic meropenem (128 μg/ml), 20 minutes; vs untreated control
Description: Total RNA was extracted from each sample using RNeasy Mini Kit (Qiagen), according to the manufacturer's instructions. The concentration, purity, and integrity of total RNA was determined using NanoDrop and gel electrophoresis. cDNA synthesis was performed using iScript™ cDNA synthesis (Bio-Rad) according to the manufacturer's instructions. Equal amounts of total RNA (1000 ng/20 μL) were reverse-transcribed in all samples. Reactions were incubated in a CFX96 Touch Real-Time PCR detection system (Bio-Rad) by the following program: 25° C. for 5 minutes, 46° C. for 20 minutes, 95° C. for 60 seconds. Bla-KPC expression was determined by qPCR, with primers designed using NCBI primer-BLAST. qPCR analysis was performed using the iTaq Universal SYBR Green Supermix (Bio-Rad) according to the manufacturer's instructions, in a CFX96 system by the following program: 95° C. for 3 minutes, 39 cycles of 95° C. for 10 seconds and 55° C. for 30 seconds. Melt curves were generated for each sample by heating PCR amplicons from 65° C. to 95° C. with a gradual increase of 0.5° C./0.5 s.

Compound	reduction of capacity of the bacteria to infect and colonize lung tissue (bacterial load in the tissue) [1]	reduction of the free-living cells that remained in the growth media [1]	reduction of the viability of the larvae ([2]; sub-toxic meropenem 10 μg/g alone or with scramble)	MIC ([3]; Klebsiella pneumoniae, ATCCBAA1705, without DNAzyme)	reduction of bacterial load in the infection site [4]	larvae viability ([2]; sub-toxic meropenem 10 μg/g with DNAzyme (8.52 μg/g))	growth inhibitory effect (optical density) ([3]; combination of subtoxic meropenem concentration and DNAzyme)	effect on viability of the bacterial cells (cell counts over time) ([3]; combined treatment of meropenem and DNAzyme)	reduction of MIC levels ([3]; meropenem MIC with vs without DNAzyme)	MIC of meropenem ([3]; with addition of DNAzyme KPC-337)	IC50 [5]	reduction of β-lactamase activity [6]	reduction of transcript levels of bla-KPC [7]
C[C@@H](O)[C@H]1C(=O)N2C(C(=O)O)=C(S[C@@H]3CN[C@H](C(=O)N(C)C)C3)[C@H](C)[C@H]12 [meropenem, reference compound]	did not reduced the bacterial load	did not reduced the bacterial load	40%	256 µg/mL	slightly reduced the bacterial load	–	–	–	–	–	–	–	–
GCCTGTTGggctagctacaacgaCAGATATTT/3CholTEG/ (GCCTGTTGGGCTAGCTACAACGACAGATATTT; 3' {3CholTEG}, sugars by position and backbone not given here) [KPC-337, DNAzyme targeting bla carbapenemase of Klebsiella pneumoniae]	1.5-2 fold	1-1.5 fold change	–	–	2-3 log fold	100%	complete arrest of growth	bactericidal	two fold	128 µg/mL	20 µM	70%	two fold
